Data published in paper PMC8050080, “Cannabis sativa terpenes are cannabimimetic and selectively enhance cannabinoid activity” (Scientific Reports, 2021).

How the values were obtained:
[1] = biological target: T1, human mu opioid receptor (Homo sapiens, UniProt P35372); type: cell-based; conditions: 500 μM terpene or 10 μM morphine, 5 min, Fig. S13A
T1 construct: host or cells: CHO (MOR-CHO)
Experimental: Cells were plated in 6-well plates 24 h prior to the start of the experiments. Cells were serum starved for 1 h then treated for 5 min with compound. In antagonist experiments, cells were pretreated for 5 min before agonist treatment for 5 min. […] Cells were scraped and collected. Lysates were vortexed then centrifuged at 13 k rpm at 4 °C for 10 min. Lysates were then processed for Western blots or stored at − 80 °C.
CHO cells were serum starved for 1 hr, then treated with Vehicle, 10 μM morphine, or 500
μM terpene for 5 min. ERK was quantitated and reported as above. Data expressed as the
vs. Vehicle group by 1 Way ANOVA with Dunnett’s post hoc test. B) MOR-CHO cells
serum starved for 1 hr, then pre-treated with Vehicle or 10 μM naloxone for 10 min, then
treated with Vehicle, 10 μM morphine, or 500 μM terpene for 5 min. ERK quantitated,
reported, and normalized as in A (n=3 independent experiments). *, **** = p < 0.05,
0.0001 vs. terpene-alone group for each set by 1 Way ANOVA with Sidak’s post hoc test
(set up as pairwise comparisons between terpene and terpene + naloxone for each set). For
both, representative blots are shown below each graph.

[2] = system: male and female CD-1 mice; assay: Tail flick thermal latency test (antinociception); type: in vivo; conditions: for tail flick antinociception (efficacy in words): terpenes 50–200 mg/kg i.p. (β-Caryophyllene 100 mg/kg), WIN55,212-2 up to 10 mg/kg, over 2 h
Experimental: Antinociception was tested using the tail flick thermal latency test. Mice were baselined by gently restraining the animal and lowering the distal portion of the tail into a water bath set to 52 °C or 47 °C where stated, and the latency to flick the tail recorded with a stopwatch, with a 10 s cutoff. Mice were then injected with compounds intraperitoneally (i.p.). Thermal latency was then assessed over a time course of 2 h, or at a single time-point as noted. […] For assays using terpene/WIN55,212-2 co-treatment, WIN55,212-2 was co-administered with terpene in the same solution.

[3] = system: male and female CD-1 mice; assay: Hypothermia (core temperature, rectal thermometer); type: in vivo; conditions: for hypothermia vs baseline: 30 min after i.p. 200 mg/kg terpene or 5.6 mg/kg WIN55,212-2, Fig. S2A; for effect of rimonabant pretreatment on hypothermia: 10 mg/kg rimonabant, 200 mg/kg terpene or 5.6 mg/kg WIN55,212-2, Fig. 3, S4C
Experimental: Changes in core temperature were assessed using a lubricated rectal thermometer placed 1.0 cm into the mouse rectum. Temperature was assessed before treatment and 30 min post-treatment.

[4] = system: male and female CD-1 mice; assay: Catalepsy ring test; type: in vivo; conditions: for effect of istradefyllene pretreatment on catalepsy response: 10 mg/kg istradefyllene; for effect of istradefyllene pretreatment on catalepsy response / effect of rimonabant pretreatment on catalepsy response: 200 mg/kg terpene, Fig. 4; for effect of rimonabant pretreatment on catalepsy response: 10 mg/kg rimonabant; for catalepsy vs baseline: 15 min after i.p. 200 mg/kg terpene or 5.6 mg/kg WIN55,212-2, Fig. S2B; for catalepsy of terpene combined with WIN55,212-2: 200 mg/kg terpene + 5.6 mg/kg WIN55,212-2, Fig. 4
Experimental: Potential induction of catalepsy was assessed using the ring test as described. Mice were baselined, injected with compound, and then assessed with the ring test at 15 min post-injection. Data was represented as the percentage (%) of time in a “cataleptic” immobile state over the 5 min observation period.

[5] = biological target: CB1 (Homo sapiens, UniProt P21554); assay: biochemical; type: binding; conditions: CB1-CHO membranes, Fig. 8A
[6] = system: WT CHO cells; assay: ERK phosphorylation (Western) in WT CHO cells; type: cell-based; conditions: for ERK phosphorylation in WT CHO cells: 500 μM terpene or 10 μM WIN55,212-2, 5 min, Fig. 7B; for rimonabant sensitivity of ERK activation in WT CHO cells: 500 μM terpene after 10 μM rimonabant, Fig. 7C
Experimental: WT-CHO cells were obtained from ATCC (#CCL-61). CHO cells stably expressing the human CB1 receptor were obtained from PerkinElmer (#ES-110-C) and utilized for western blots (CB1-CHO-C2) or binding assays (CB1-CHO-C3). HitHunter (CB1-CHO-cAMP) and PathHunter (CB-CHO-βarr2) assays were performed on respective CB1-CHO lines, and were a kind gift from Dr. Robert Laprairie[44]. CHO cells stably expressing cloned CB2 (CB2-CHO) were produced by electroporation with the human CB2 N-3xHA tag cDNA (GeneCopoeia). A stable expressing population was selected for with 500 μg/mL G418. CHO cells stably expressing the human mu opioid receptor were obtained from PerkinElmer (#ES-542-C). All cells were grown on 10 cm dishes in DMEM/F-12 50/50 mix w/ L-glutamine and 15 mM HEPES (Corning) containing 10% heat-inactivated fetal bovine serum, 100 units/mL penicillin, 100 units/mL streptomycin, and 400 μg/mL G418 (CB1-CHO-C2, CB1-CHO-C3, CB2-CHO, MOR-CHO); 800 μg/mL G418 (CB1-CHO-cAMP); 800 μg/mL G418 and 300 μg/mL hygromycin B (CB1-CHO-βarr2). WT CHO were grown as stated above without selection antibiotic. Cells were incubated in a humidified incubator at 37 °C with 5% CO2 and were sub-cultured every 2–3 days.
Cells were plated in 6-well plates 24 h prior to the start of the experiments. Cells were serum starved for 1 h then treated for 5 min with compound. In antagonist experiments, cells were pretreated for 5 min before agonist treatment for 5 min. Media was then aspirated, cells were placed on ice, washed with ice-cold PBS once, and lysis buffer (20 mM Tris–HCl, pH 7.4, 150 mM NaCl, 2 mM EDTA, 0.1% SDS, 1% Nonidet P-40, 0.25% deoxycholate, 1 mM sodium orthovanadate, 1 mM PMSF, 1 mM sodium fluoride, and a protease inhibitor cocktail (EMD Millipore)), was added. Cells were scraped and collected. Lysates were vortexed then centrifuged at 13 k rpm at 4 °C for 10 min. Lysates were then processed for Western blots or stored at − 80 °C.
Cell lysate protein was quantified with a modified BCA protein assay using manufacturers protocol (Bio-Rad). Samples (20–30 μg) were ran on precast gels (10% Bis–Tris, Bolt brand, from ThermoFisher). Gels were wet-transferred to nitrocellulose membranes at 30 V for at least 60 min at 4 °C. Blots were blocked with 5% non-fat dry milk in TBS for 30 min, washed 3 × for 5 min with TBS + 0.1% Tween-20 (TBST), and incubated with primary antibody overnight at 4 °C. Primary antibody: pERK and tERK (Cell Signaling) at 1:1000 dilution in 5% BSA in TBST. Blots were then washed 3 × with TBST then incubated with secondary antibodies for 90 min at room temperature. Secondary antibodies: Goat anti-Rabbit 800 W and Goat anti-Mouse 680 diluted at 1:10,000 and 1:20,000 (Licor), respectively, in 5% non-fat milk in TBST. Blots were washed 3X with TBST and 1 × with TBS, then imaged on a Licor Odyssey Fc or Azure Sapphire. Bands were analyzed using Image-J and reported as pERK/tERK normalized to the standard, or simply as pERK/tERK.

[7] = system: male and female CD-1 mice; assay: Open field test (hypolocomotion); conditions: for mobile time of terpene combined with WIN55,212-2: 200 mg/kg terpene + 5.6 mg/kg WIN55,212-2, Fig. 5; for locomotor activity vs baseline / distance traveled and mobile time, experiment without baseline recording: 200 mg/kg terpene or 5.6 mg/kg WIN55,212-2 i.p.; for locomotor activity vs baseline: compared to baseline values, Fig. S2C,D, confounded by habituation; for distance traveled and mobile time, experiment without baseline recording: vs Vehicle, Fig. S3A,B
Experimental: All experiments were performed on male and female CD-1 (a.k.a. ICR) mice obtained from Charles River in age-matched cohorts of 5–6 weeks of age. […] The animals were maintained in an AAALAC-accredited vivarium at the University of Arizona in temperature and humidity-controlled rooms on a 12-h light/dark cycle. Standard chow and water were available ad libitum. […] Mice were randomized to treatment group by randomization of mice to cages upon arrival, and block random assignment of cages to treatment group. The experimenter was blinded to treatment group by the delivery of coded drug vials. The groups were not decoded until all data had been acquired.
The open field test was used to determine potential hypolocomotive properties induced by terpene and cannabinoid treatment. The open field box was a white box with an open top and black floor. The tracking area was 30 cm × 28 cm. Mice were baselined by placing the mouse in the center of the box and recording from a video camera ~ 1.5 m above for a period of 5 min. Mice were then injected with compound and placed back in the open field box 10–15 min post-injection. In follow-up experiments, mice were not baselined, injected with compound, and placed in the open field box from 10 to 15 min. The total distance traveled and mobile time of mice were analyzed using AnyMaze software.

[8] = system: male and female CD-1 mice; assay: Cannabinoid tetrad of behaviors (antinociception, hypolocomotion, catalepsy, hypothermia); type: in vivo; conditions: 5.6 mg/kg WIN55,212-2 after 10 mg/kg rimonabant i.p., Fig. S4
Text: Our first set of experiments sought to determine whether selected terpenes/terpenoids (α-Humulene, β-Pinene, Linalool [terpenoid], Geraniol [terpenoid], and β-Caryophyllene as a putative cannabinoid receptor type 2 [CB2] agonist control) had activity in the cannabinoid tetrad of behaviors mediated by the CB1 receptor: antinociception, hypolocomotion, catalepsy, and hypothermia. These terpenes were selected based on their quantities in Cannabis sativa, with α-Humulene, β-Pinene, Linalool, and β-Caryophyllene all being found in higher quantities and Geraniol in lower to underdetermined quantities. Although it is not clear if geraniol is present in higher quantities, we nonetheless chose this ligand due to its reported anti-nociceptive activity (e.g.[22]). Terpenes were administered at several doses (50–200 mg/kg) i.p. and assessed in the tail flick assay in male and female CD-1 mice. […]
Antinociception was tested using the tail flick thermal latency test. Mice were baselined by gently restraining the animal and lowering the distal portion of the tail into a water bath set to 52 °C or 47 °C where stated, and the latency to flick the tail recorded with a stopwatch, with a 10 s cutoff. […] Thermal latency was then assessed over a time course of 2 h, or at a single time-point as noted. […]
Potential induction of catalepsy was assessed using the ring test as described. […]

T1 sequence (P35372 whole entry): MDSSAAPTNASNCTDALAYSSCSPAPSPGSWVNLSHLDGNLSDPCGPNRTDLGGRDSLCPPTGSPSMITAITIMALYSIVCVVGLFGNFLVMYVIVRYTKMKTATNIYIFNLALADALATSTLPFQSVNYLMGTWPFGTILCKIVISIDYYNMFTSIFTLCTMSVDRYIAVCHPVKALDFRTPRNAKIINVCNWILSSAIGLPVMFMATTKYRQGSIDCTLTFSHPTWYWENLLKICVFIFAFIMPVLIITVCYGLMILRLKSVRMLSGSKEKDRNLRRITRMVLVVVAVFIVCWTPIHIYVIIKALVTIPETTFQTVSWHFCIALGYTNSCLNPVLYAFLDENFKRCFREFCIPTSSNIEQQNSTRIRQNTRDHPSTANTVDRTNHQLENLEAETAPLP
Sequence of CB1 (P21554 whole entry): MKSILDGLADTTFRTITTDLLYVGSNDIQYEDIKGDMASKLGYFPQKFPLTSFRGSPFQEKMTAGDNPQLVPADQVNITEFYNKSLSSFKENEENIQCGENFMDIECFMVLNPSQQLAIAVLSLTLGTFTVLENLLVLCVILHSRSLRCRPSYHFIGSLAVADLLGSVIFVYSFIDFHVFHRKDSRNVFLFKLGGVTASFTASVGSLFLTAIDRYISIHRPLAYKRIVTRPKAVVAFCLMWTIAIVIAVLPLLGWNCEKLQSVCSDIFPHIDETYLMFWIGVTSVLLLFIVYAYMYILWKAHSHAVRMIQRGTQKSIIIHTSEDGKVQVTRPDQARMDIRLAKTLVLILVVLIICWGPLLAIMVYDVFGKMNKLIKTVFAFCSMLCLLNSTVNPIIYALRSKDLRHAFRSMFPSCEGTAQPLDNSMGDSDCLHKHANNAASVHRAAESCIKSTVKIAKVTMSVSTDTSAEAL

Row | Structure (SMILES) | ERK stimulation in MOR-CHO cells [1] | tail flick antinociception (efficacy in words) ([2]; Fig. S1) | hypothermia vs baseline [3] | effect of istradefyllene pretreatment on catalepsy response [4] | effect of rimonabant pretreatment on catalepsy response [4] | catalepsy vs baseline [4] | competition for the orthosteric binding site against CP55,940 [5] | ERK phosphorylation in WT CHO cells [6] | mobile time of terpene combined with WIN55,212-2 [7] | locomotor activity vs baseline [7] | distance traveled and mobile time, experiment without baseline recording [7] | effect of rimonabant pretreatment on hypothermia [3] | catalepsy of terpene combined with WIN55,212-2 [4] | rimonabant sensitivity of ERK activation in WT CHO cells [6] | also measured
1 | C=CC(C)(O)CCC=C(C)C (stereo not shown) [Linalool] | no response | dose-dependent low efficacy | induced significant hypothermia | partially blocked | small but significant reduction | significant increases in cataleptic behavior | little to no competition | did not cause ERK phosphorylation | further decrease in mobile time | significant reductions in locomotor activity | reductions in distance traveled and mobile time | – | – | – | effect of rimonabant pretreatment on tail flick antinociception ([2]; 200 mg/kg terpene i.p. after 10 mg/kg rimonabant, Fig. 2): fully blocked by rimonabant; tail flick, Linalool combined with WIN55,212-2, females ([2]; female mice, 200 mg/kg + 5.6 mg/kg WIN55,212-2, Fig. S8A): a delay in response and no potentiation over Linalool alone; tail flick, Linalool combined with WIN55,212-2, males ([2]; male mice, 200 mg/kg + 5.6 mg/kg WIN55,212-2, Fig. S8A): greater additive effects of combining both that occurred earlier in the time course; hypolocomotion, antagonist reversal, females ([7]; female mice, 200 mg/kg Linalool, Fig. S8B-C): istradefyllene reversal; hypolocomotion, antagonist reversal, males ([7]; male mice, 200 mg/kg Linalool, Fig. S8B-C): rimonabant reversal
2 | Cc1c(C(=O)NN2CCCCC2)nn(-c2ccc(Cl)cc2Cl)c1-c1ccc(Cl)cc1 [Rimonabant, reference compound] | – | – | – | – | – | – | – | – | – | – | – | – | – | – | effect of rimonabant pretreatment on morphine-induced antinociception ([2]; 10 mg/kg rimonabant i.p., 5.6 mg/kg morphine, Fig. S5A,B): no significant effect; effect of rimonabant on baseline thermal latency ([2]; 10 mg/kg rimonabant, water bath 47 °C, 30 min, Fig. S5C): no significant effect
3 | Cc1c(C(=O)c2cccc3ccccc23)c2cccc3c2n1[C@H](CN1CCOCC1)CO3 [WIN55,212-2, reference compound] | – | dose-dependent increases in thermal latency with greater efficacy than any of the tested compounds | induced significant hypothermia | – | – | significant increases in cataleptic behavior | – | did not cause ERK phosphorylation | – | significant reductions in locomotor activity | reductions in distance traveled and mobile time | only partially reversed | – | – | effect of rimonabant on tetrad behaviors induced by the agonist [8]: fully or partially reverse
4 | CCn1c(=O)c2c(nc(/C=C/c3ccc(OC)c(OC)c3)n2C)n(CC)c1=O [istradefyllene, Istradefyllene, reference compound] | – | – | – | – | – | – | – | – | – | – | – | – | – | – | effect of istradefyllene alone on temperature ([3]; 10 mg/kg i.p., 30 min, Fig. S6A): small but significant hypothermic; effect of istradefyllene alone on locomotion ([7]; 10 mg/kg i.p., open field after 10 min, Fig. S6B,C): hyperlocomotive effect
5 | C/C1=C\CC/C(C)=C/CC(C)(C)/C=C/C1 [α-Humulene] | produced ERK stimulation | – | induced significant hypothermia | completely blocked | small but significant reduction | significant increases in cataleptic behavior | some competition and semi-biphasic properties | activated ERK | further decrease in mobile time | significant reductions in locomotor activity | did not result in significant reductions | partially reverse | additive effects | rimonabant-insensitive | efficacy in the tail flick assay ([2]; terpene 50–200 mg/kg i.p., dose-dependent, Fig. S1): 40–50%; effect of istradefyllene pretreatment on hypothermia ([3]; 10 mg/kg istradefyllene, 200 mg/kg terpene, Fig. 3): partially reversed
6 | C=C1CCC2CC1C2(C)C (stereo not drawn) [β-Pinene] | produced ERK stimulation | low efficacy but not in a dose-dependent manner | induced significant hypothermia | completely blocked | no impact | significant increases in cataleptic behavior | little to no competition | activated ERK | further decrease in mobile time | significant reductions in locomotor activity | reductions in distance traveled and mobile time | – | additive effects | rimonabant-insensitive | effect of istradefyllene pretreatment on mobile time ([7]; 10 mg/kg istradefyllene, 200 mg/kg terpene, Fig. 5): significant reversal; effect of istradefyllene pretreatment on distance traveled ([7]; 10 mg/kg istradefyllene, 200 mg/kg terpene, Fig. S7): istradefyllene reversal
